{"source": "patent US20210069213A1", "about": "“COMPOSITION AND METHOD OF TREATMENT FOR DRY A.M.D. (AGE RELATED MACULAR DEGENERATION)” (EYE CO PTY LTD, priority 2018, published 2021)", "key": {"[1]": {"tested_on": "light-damage model of dry AMD", "experiment": "Light-damage model of dry AMD in mice", "assay_type": "in vivo"}, "[2]": {"tested_on": "subject with bi-lateral GA", "experiment": "Phase Ib study of intravitreal FA in patients with geographic atrophy", "assay_type": "in vivo, human", "conditions": "single subject, 1 mg intravitreal", "protocol": "A. Phase Ib, Study of Safety and Tolerability of Intravitreal Fludrocortisone Acetate (FA) and Triamcinolone (TA) in Patients with Geographic Atrophy (GA)\nThe identical protocol will be followed with TA.\nPart 1 involves a single participant to assess safety and tolerability of 1 mg/0.1 mL FA. This participant will be followed for up to 28 days and reviewed by a safety review committee prior to the recruitment of a further 2 participants treated with 1 mg/0.1 mL FA totalling in 3 participants in the first cohort.\nVisit 2 (Baseline)—All subjects: Unless specified, all ophthalmic procedures (including imaging) are to be performed on the Study eye only. 1. Verify that all inclusion/exclusion criteria are met, including the determination of eligibility by the PI. 2. Obtain information on any changes in medical health and/or the use of concomitant medications. 3. Collect vital signs pre- and post-dose. Vital signs will be measured within 1 hour prior to dosing for the pre-dose time point. Post-dose vital signs readings will be performed within 30 minutes after dosing. 4. Perform BCVA. 5. Perform LL-BCVA. 6. Perform a complete ophthalmic exam including slit-lamp exam of the cornea, iris, anterior chamber, lens (LOCS III if any opacity on the lens noted) and aqueous reaction (cells and flare), dilated fundus exam of the vitreous and retina and IOP measurement. 7. Perform the IVT injection of fludrocortisone acetate. 8. Monitor the study eye within 15 minutes' post injection. 9. Monitor for adverse events.\nFIGS. 2 to 6 show the results of injection of fludrocortisone into one subject according to the Phase lb study."}, "[3]": {"conditions": "FA delivered in Kenalog vehicle, 7 days later"}}}
{"molecule": "CC(=O)OCC(=O)[C@@]1(O)CC[C@H]2[C@@H]3CCC4=CC(=O)CC[C@]4(C)[C@@]3(F)[C@@H](O)C[C@@]21C", "note": "[Fludrocortisone acetate, 9-α-Fiuoro-11 β. 17 α, 21-trihydroxy-4-pregnene-3, 20 dione acetate]", "values": [{"measurement": "cell death", "setting": "[1]; [3]", "result": "significantly less cell death"}, {"measurement": "macrophages that carry the IBA1 marker", "setting": "[1]; [3]", "result": "significantly fewer macrophages"}, {"measurement": "Electroretinogram A-wave (Photoreceptor function) and B-wave (inner retinal function)", "setting": "[1]; FA-treated animals", "result": "significantly more robust"}, {"measurement": "outer nuclear layer thickness (histology)", "setting": "[1]; FA-treated animals", "result": "much thicker outer nuclear layer"}, {"measurement": "external eye exam", "setting": "[2]", "result": "all normal"}, {"measurement": "slit lamp biomicroscopy", "setting": "[2]", "result": "all normal, apart from a previous scar on the anterior chamber"}, {"measurement": "vitreous haze grading", "setting": "[2]", "result": "absent"}, {"measurement": "toxicity", "setting": "[2]; left eye, day 28", "result": "no evidence of toxicity"}, {"measurement": "visual acuity (VA)", "setting": "[2]; left eye, day 28", "result": "improved visual acuity"}]}
